From US4605660A, “Indeno[2,1-c]pyridine compounds, and their use as calcium channel blockers” (Merck & Co., Inc., priority 1985, dated 1986)

Test system: Rat Aorta
Experiment: Inhibition of calcium chloride-induced contraction of depolarized rat aorta (vascular smooth muscle segments in tissue bath)
Assay type: cell-based, male Sprague-Dawley rats
Details: contraction induced by 1.0 mM calcium chloride; for inhibition at 10 µM / inhibition at 1 µM: Rattus norvegicus, read-out: Percent Inhibition of Contraction of Rat Aorta; for inhibition at 10 µM: at 10^-5 M
Procedure: The property may be observed in a test in which segments of vascular smooth muscle obtained from male Sprague-Dawley rats are suspended in physiological salt solution in a tissue bath instrumented for recording contractions. After the tissue has been equilibrated, washed in calcium-free physiological salt solution and then depolarized, 1.0 mM calcium chloride is re-added to induce contraction. […] From measuring the initial contraction as well as the second contraction in the presence of the test compound, the extent of inhibition may be calculated.

SMILES	inhibition at 10 µM	inhibition at 1 µM (at 10^-6 M)	further results
CCOC(=O)C1=C(C)N[C@@](C)(C#N)[C@]2(C(=O)OCC)[C@@H](O)c3ccccc3[C@H]12 (relative stereo) [Compound IIIA-1, 4a(R,S),9a(S,R)-Diethyl 1-cyano-1,3-dimethyl-2,4a,9,9a-tetrahydro-9-hydroxy-9H-indeno[2,1-c]pyridine-4,9a-dicarboxylate]	84%	–	–
COC(=O)C1=C(C)N[C@@](C)(C#N)[C@]2(C(=O)OC)[C@@H](O)c3cc(OC)ccc3[C@H]12 (relative stereo) [Compound IIIA-2, 4a(R,S),9a(S,R)-Dimethyl 1-cyano-9-hydroxy-7-methoxy-2,4a,9,9a-tetrahydro-1,3-dimethyl-9H-indeno[2,1-c]pyridine-4,9a-dicarboxylate hydrate]	–	4%	–
COC(=O)C1=C(C)N[C@](C)(C#N)[C@]2(C(=O)OC)[C@@H](O)c3cc(OC)ccc3[C@H]12 (relative stereo) [Compound IIIB-2, 4a(R,S),9a(S,R)-Dimethyl 1-cyano-9-hydroxy-7-methoxy-2,4a,9,9a-tetrahydro-1,3-dimethyl-9H-indeno[2,1-c]pyridine-4,9a-dicarboxylate]	–	2%	–
CCOC(=O)C1=C(C)N[C@@](C)(C#N)[C@]2(C(=O)OCC)[C@@H](OC(C)=O)c3ccccc3[C@H]12 (relative stereo) [Compound IVA-1, 4a(R,S),9a(S,R)-Diethyl 9-acetoxy-1-cyano-2,4a,9,9a-tetrahydro-1,3-dimethyl-9H-indeno[2,1-c]pyridine-4,9a-dicarboxylate]	62%	–	–
CCOC(=O)C1=C(C)N[C@](C)(C#N)[C@]2(C(=O)OCC)[C@@H](OC(C)=O)c3ccccc3[C@H]12 (relative stereo) [Compound IVB-1, 4a(R,S),9a(S,R)-Diethyl 9-acetoxy-1-cyano-2,4a,9,9a-tetrahydro-1,3-dimethyl-9H-indeno[2,1-c]pyridine-4,9a-dicarboxylate]	–	6%	–
CCOC(=O)C1=C(C)N[C@@](C)(C#N)[C@]2(C(=O)OCC)[C@H](Cl)c3ccccc3[C@H]12 (relative stereo) [Compound V-1, 4a(R,S),9a(S,R)-Diethyl 9-chloro-1-cyano-2,4a,9,9a-tetrahydro-1,3-dimethyl-9H-indeno[2,1-c]pyridine-4,9a-dicarboxylate]	24%	–	–
CCOC(=O)C1=C(C)NC(C)(C#N)[C@]2(C(=O)OCC)C(O)c3ccccc3[C@H]12 (stereo partly drawn) [Compound IIIB-1, 4a(R,S),9a(S,R)-Diethyl 1-cyano-1,3-dimethyl-2,4a,9,9a-tetrahydro-9-hydroxy-9H-indeno[2,1-c]pyridine-4,9a-dicarboxylate]	–	–	Percent Inhibition of Contraction of Rat Aorta (at 10^-6 M): 52%
